In ChEMBL document CHEMBL1909046, “DrugMatrix in vitro pharmacology data”:

System: not listed separately
Experiment: DRUGMATRIX: GABAA, Muscimol, Central radioligand binding (ligand: [3H] Muscimol)
Assay type: cell membranes, Rattus norvegicus, Wistar, Brain, Membrane
Conditions: Not Active = under 50% inhibition at 10 µM

| SMILES | IC50 | Ki |
| --- | --- | --- |
| CC(C)[C@H](N)C(=O)OCCOCn1cnc2c(=O)nc(N)[nH]c21 [VALACYCLOVIR] | Not Active | Not Active |
| CN(N=O)C(=O)N[C@@H](C=O)[C@@H](O)[C@H](O)[C@H](O)CO [STREPTOZOCIN] | Not Active | Not Active |

Molecular target: Beta-1 adrenergic receptor (Homo sapiens, UniProt P08588)
Sequence (P08588 whole entry): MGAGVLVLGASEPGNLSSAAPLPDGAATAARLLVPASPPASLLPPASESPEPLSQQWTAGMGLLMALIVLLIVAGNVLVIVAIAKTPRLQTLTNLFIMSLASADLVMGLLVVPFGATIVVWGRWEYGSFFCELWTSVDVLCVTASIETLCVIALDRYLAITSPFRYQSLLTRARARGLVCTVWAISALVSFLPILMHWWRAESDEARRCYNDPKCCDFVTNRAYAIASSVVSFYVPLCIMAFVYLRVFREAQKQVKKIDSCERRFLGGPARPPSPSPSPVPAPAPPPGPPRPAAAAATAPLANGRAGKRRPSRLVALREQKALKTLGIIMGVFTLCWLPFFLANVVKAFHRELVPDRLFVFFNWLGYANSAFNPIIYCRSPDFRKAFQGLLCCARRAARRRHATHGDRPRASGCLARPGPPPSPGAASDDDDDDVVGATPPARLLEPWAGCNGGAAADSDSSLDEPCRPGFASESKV
Experiment: DRUGMATRIX: Adrenergic beta1 radioligand binding (ligand: [125I] Cyanopindolol)
Assay type: cell membranes, CHO-K1, Membrane
Conditions: cho-k1; Not Active = under 50% inhibition at 10 µM

| SMILES | IC50 |
| --- | --- |
| CC(C)[C@H](N)C(=O)OCCOCn1cnc2c(=O)nc(N)[nH]c21 [VALACYCLOVIR] | Not Active |
| CN(N=O)C(=O)N[C@@H](C=O)[C@@H](O)[C@H](O)[C@H](O)CO [STREPTOZOCIN] | Not Active |

Molecular target: Melanocortin receptor 4 (Homo sapiens, UniProt P32245); note: in other assays of this panel Not Active means under 50% inhibition at 10 µM
Sequence (P32245 whole entry): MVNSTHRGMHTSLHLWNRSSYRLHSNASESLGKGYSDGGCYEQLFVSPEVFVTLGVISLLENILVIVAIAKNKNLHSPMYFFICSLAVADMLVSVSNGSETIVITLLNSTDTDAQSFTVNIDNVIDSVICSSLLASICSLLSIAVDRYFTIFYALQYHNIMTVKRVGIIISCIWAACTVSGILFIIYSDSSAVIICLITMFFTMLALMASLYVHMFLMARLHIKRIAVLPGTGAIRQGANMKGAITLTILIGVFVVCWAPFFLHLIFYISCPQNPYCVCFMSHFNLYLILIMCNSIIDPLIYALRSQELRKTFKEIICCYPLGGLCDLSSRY
Assay type: cell membranes, Membrane
Conditions: hek293

| SMILES | IC50 |
| --- | --- |
| CC(C)[C@H](N)C(=O)OCCOCn1cnc2c(=O)nc(N)[nH]c21 [VALACYCLOVIR] | Not Active |
| CN(N=O)C(=O)N[C@@H](C=O)[C@@H](O)[C@H](O)[C@H](O)CO [STREPTOZOCIN] | Not Active |

Molecular target: T1, 5-hydroxytryptamine receptor 2C (Homo sapiens, UniProt P28335)
T1 sequence (P28335 whole entry): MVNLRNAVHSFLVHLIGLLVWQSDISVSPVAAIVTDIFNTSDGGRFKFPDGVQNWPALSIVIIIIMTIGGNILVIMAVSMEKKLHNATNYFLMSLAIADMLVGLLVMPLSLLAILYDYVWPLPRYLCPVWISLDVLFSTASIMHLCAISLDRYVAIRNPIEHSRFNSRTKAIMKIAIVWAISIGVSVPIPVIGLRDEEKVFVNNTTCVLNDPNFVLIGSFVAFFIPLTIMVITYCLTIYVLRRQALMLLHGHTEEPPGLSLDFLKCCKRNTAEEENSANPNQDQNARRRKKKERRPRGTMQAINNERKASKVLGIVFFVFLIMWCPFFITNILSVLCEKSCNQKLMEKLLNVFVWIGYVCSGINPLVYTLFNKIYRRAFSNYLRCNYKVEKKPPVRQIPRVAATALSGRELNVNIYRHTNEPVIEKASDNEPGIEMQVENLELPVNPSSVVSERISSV
Experiment: DRUGMATRIX: Serotonin (5-Hydroxytryptamine) 5-HT2C radioligand binding (ligand: [3H] Mesulergine)
Assay type: cell membranes, CHO-K1, Membrane
Conditions: cho-k1; Not Active = under 50% inhibition at 10 µM

| SMILES | IC50 |
| --- | --- |
| CC(C)[C@H](N)C(=O)OCCOCn1cnc2c(=O)nc(N)[nH]c21 [VALACYCLOVIR] | Not Active |
| CN(N=O)C(=O)N[C@@H](C=O)[C@@H](O)[C@H](O)[C@H](O)CO [STREPTOZOCIN] | Not Active |

Molecular target: Mu-type opioid receptor (Homo sapiens, UniProt P35372)
Sequence (P35372 whole entry): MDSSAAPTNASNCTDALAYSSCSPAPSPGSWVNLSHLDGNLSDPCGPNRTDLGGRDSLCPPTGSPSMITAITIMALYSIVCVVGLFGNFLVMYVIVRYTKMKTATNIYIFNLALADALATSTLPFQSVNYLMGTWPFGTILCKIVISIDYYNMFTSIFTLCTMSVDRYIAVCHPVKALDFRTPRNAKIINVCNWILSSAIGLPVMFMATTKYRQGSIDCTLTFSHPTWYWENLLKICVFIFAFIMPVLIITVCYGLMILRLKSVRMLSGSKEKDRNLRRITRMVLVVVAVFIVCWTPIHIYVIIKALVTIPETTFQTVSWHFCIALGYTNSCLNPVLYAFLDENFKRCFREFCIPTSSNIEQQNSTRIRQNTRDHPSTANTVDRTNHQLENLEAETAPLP
Experiment: DRUGMATRIX: Opiate mu (OP3, MOP) radioligand binding (ligand: [3H] Diprenorphine)
Assay type: cell membranes, CHO-K1, Membrane
Conditions: cho-k1; Not Active = under 50% inhibition at 10 µM

| SMILES | IC50 |
| --- | --- |
| CC(C)[C@H](N)C(=O)OCCOCn1cnc2c(=O)nc(N)[nH]c21 [VALACYCLOVIR] | Not Active |
| CN(N=O)C(=O)N[C@@H](C=O)[C@@H](O)[C@H](O)[C@H](O)CO [STREPTOZOCIN] | Not Active |

System: not listed separately
Experiment: DRUGMATRIX: Nicotinic Acetylcholine radioligand binding (ligand: [125I] Epibatidine)
Assay type: cell membranes, Membrane
Conditions: imr-32; Not Active = under 50% inhibition at 10 µM

| SMILES | IC50 | Ki |
| --- | --- | --- |
| CC(C)[C@H](N)C(=O)OCCOCn1cnc2c(=O)nc(N)[nH]c21 [VALACYCLOVIR] | Not Active | Not Active |
| CN(N=O)C(=O)N[C@@H](C=O)[C@@H](O)[C@H](O)[C@H](O)CO [STREPTOZOCIN] | Not Active | Not Active |

Molecular target: T2, Alpha-1B adrenergic receptor (Rattus norvegicus, UniProt P15823)
T2 sequence (P15823 whole entry): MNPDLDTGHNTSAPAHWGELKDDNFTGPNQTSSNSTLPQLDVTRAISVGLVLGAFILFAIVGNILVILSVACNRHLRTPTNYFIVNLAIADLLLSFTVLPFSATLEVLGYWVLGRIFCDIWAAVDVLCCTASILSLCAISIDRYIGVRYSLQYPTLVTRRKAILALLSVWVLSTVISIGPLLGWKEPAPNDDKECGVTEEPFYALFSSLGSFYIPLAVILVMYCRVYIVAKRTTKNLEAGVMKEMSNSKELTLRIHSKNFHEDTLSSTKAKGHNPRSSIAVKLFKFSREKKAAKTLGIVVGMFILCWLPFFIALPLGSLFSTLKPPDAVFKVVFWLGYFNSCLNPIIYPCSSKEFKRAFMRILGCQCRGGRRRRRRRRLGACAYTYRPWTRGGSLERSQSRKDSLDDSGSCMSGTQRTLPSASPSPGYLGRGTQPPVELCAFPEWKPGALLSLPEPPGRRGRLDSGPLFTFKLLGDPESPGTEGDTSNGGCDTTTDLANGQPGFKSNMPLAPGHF
Experiment: DRUGMATRIX: Alpha-1B adrenergic receptor radioligand binding (ligand: prazosin)
Assay type: cell membranes, Wistar, Liver, Membrane
Conditions: Not Active = under 50% inhibition at 10 µM

| SMILES | IC50 |
| --- | --- |
| CC(C)[C@H](N)C(=O)OCCOCn1cnc2c(=O)nc(N)[nH]c21 [VALACYCLOVIR] | Not Active |
| CN(N=O)C(=O)N[C@@H](C=O)[C@@H](O)[C@H](O)[C@H](O)CO [STREPTOZOCIN] | Not Active |

System: not listed separately
Experiment: DRUGMATRIX: Calcium Channel Type L, Benzothiazepine radioligand binding (ligand: [3H] Diltiazem)
Assay type: cell membranes, Rattus norvegicus, Wistar, Brain, Membrane
Conditions: Not Active = under 50% inhibition at 10 µM

| SMILES | IC50 | Ki |
| --- | --- | --- |
| CC(C)[C@H](N)C(=O)OCCOCn1cnc2c(=O)nc(N)[nH]c21 [VALACYCLOVIR] | Not Active | Not Active |
| CN(N=O)C(=O)N[C@@H](C=O)[C@@H](O)[C@H](O)[C@H](O)CO [STREPTOZOCIN] | Not Active | Not Active |

System: not listed separately
Experiment: DRUGMATRIX: Glutamate, Kainate radioligand binding (ligand: [3H] Kainic acid)
Assay type: cell membranes, Rattus norvegicus, Wistar, Brain, Membrane
Conditions: Not Active = under 50% inhibition at 10 µM

| SMILES | IC50 | Ki |
| --- | --- | --- |
| CC(C)[C@H](N)C(=O)OCCOCn1cnc2c(=O)nc(N)[nH]c21 [VALACYCLOVIR] | Not Active | Not Active |
| CN(N=O)C(=O)N[C@@H](C=O)[C@@H](O)[C@H](O)[C@H](O)CO [STREPTOZOCIN] | Not Active | Not Active |

Molecular target: T3, Endothelin-1 receptor (Homo sapiens, UniProt P25101); note: in other assays of this panel Not Active means under 50% inhibition at 10 µM
T3 sequence (P25101 whole entry): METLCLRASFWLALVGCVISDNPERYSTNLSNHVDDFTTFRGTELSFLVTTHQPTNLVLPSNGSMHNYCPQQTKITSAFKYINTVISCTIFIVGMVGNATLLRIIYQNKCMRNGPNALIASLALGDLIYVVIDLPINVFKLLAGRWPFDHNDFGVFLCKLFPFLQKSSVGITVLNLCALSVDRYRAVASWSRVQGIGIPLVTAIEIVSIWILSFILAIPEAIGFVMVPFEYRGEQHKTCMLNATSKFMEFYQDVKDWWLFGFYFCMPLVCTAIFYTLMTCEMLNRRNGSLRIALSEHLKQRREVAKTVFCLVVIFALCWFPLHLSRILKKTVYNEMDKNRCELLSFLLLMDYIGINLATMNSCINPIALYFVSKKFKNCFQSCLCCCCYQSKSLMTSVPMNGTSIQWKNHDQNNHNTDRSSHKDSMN
Assay type: cell membranes, Membrane
Conditions: cho-k1

| SMILES | IC50 |
| --- | --- |
| CC(C)[C@H](N)C(=O)OCCOCn1cnc2c(=O)nc(N)[nH]c21 [VALACYCLOVIR] | Not Active |
| CN(N=O)C(=O)N[C@@H](C=O)[C@@H](O)[C@H](O)[C@H](O)CO [STREPTOZOCIN] | Not Active |

System: not listed separately
Experiment: DRUGMATRIX: Calcium Channel Type L, Phenylalkylamine radioligand binding (ligand: [3H] (-)-Desmethoxyverapamil (D-888))
Assay type: cell membranes, Rattus norvegicus, Wistar, Brain, Membrane
Conditions: Not Active = under 50% inhibition at 10 µM

| SMILES | IC50 | Ki |
| --- | --- | --- |
| CC(C)[C@H](N)C(=O)OCCOCn1cnc2c(=O)nc(N)[nH]c21 [VALACYCLOVIR] | Not Active | Not Active |
| CN(N=O)C(=O)N[C@@H](C=O)[C@@H](O)[C@H](O)[C@H](O)CO [STREPTOZOCIN] | Not Active | Not Active |

System: not listed separately
Experiment: DRUGMATRIX: Serotonin (5-Hydroxytryptamine) 5-HT3 radioligand binding (ligand: [3H] GR-65630)
Assay type: cell membranes, Membrane
Conditions: hek293; Not Active = under 50% inhibition at 10 µM

| SMILES | IC50 | Ki |
| --- | --- | --- |
| CC(C)[C@H](N)C(=O)OCCOCn1cnc2c(=O)nc(N)[nH]c21 [VALACYCLOVIR] | Not Active | Not Active |
| CN(N=O)C(=O)N[C@@H](C=O)[C@@H](O)[C@H](O)[C@H](O)CO [STREPTOZOCIN] | Not Active | Not Active |

System: not listed separately
Experiment: DRUGMATRIX: ATPase, Na+/K+ enzyme inhibition (substrate: ATP)
Assay type: tissue-based, Sus scrofa, Heart
Conditions: Not Active = under 50% inhibition at 10 µM

| SMILES | IC50 | Ki |
| --- | --- | --- |
| CC(C)[C@H](N)C(=O)OCCOCn1cnc2c(=O)nc(N)[nH]c21 [VALACYCLOVIR] | Not Active | Not Active |
| CN(N=O)C(=O)N[C@@H](C=O)[C@@H](O)[C@H](O)[C@H](O)CO [STREPTOZOCIN] | Not Active | Not Active |

Molecular target: Sigma non-opioid intracellular receptor 1 (Homo sapiens, UniProt Q99720)
Sequence (Q99720 whole entry): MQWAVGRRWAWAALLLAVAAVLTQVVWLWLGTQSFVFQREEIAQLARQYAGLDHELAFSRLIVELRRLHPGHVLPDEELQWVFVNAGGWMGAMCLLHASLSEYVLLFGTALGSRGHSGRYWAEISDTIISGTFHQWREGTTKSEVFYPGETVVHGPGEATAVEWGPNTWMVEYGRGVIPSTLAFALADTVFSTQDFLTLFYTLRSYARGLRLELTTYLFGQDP
Experiment: DRUGMATRIX: Sigma1 radioligand binding (ligand: [3H] Haloperidol)
Assay type: cell membranes, Jurkat, Membrane
Conditions: jurkat; Not Active = under 50% inhibition at 10 µM

| SMILES | IC50 |
| --- | --- |
| CC(C)[C@H](N)C(=O)OCCOCn1cnc2c(=O)nc(N)[nH]c21 [VALACYCLOVIR] | Not Active |
| CN(N=O)C(=O)N[C@@H](C=O)[C@@H](O)[C@H](O)[C@H](O)CO [STREPTOZOCIN] | Not Active |

Molecular target: Kappa-type opioid receptor (Homo sapiens, UniProt P41145)
Sequence (P41145 whole entry): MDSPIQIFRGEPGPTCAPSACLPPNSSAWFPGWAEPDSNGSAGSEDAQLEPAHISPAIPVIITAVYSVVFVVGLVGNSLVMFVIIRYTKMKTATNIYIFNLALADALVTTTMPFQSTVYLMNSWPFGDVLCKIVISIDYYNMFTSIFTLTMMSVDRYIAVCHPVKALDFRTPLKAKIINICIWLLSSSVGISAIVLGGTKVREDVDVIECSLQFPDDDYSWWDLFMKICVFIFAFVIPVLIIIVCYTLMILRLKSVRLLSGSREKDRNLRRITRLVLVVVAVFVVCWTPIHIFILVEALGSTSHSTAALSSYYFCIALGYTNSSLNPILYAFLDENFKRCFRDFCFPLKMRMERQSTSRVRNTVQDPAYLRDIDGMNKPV
Experiment: DRUGMATRIX: Opiate kappa (OP2, KOP) radioligand binding (ligand: [3H] Diprenorphine)
Assay type: cell membranes, HEK293, Membrane
Conditions: hek293; Not Active = under 50% inhibition at 10 µM

| SMILES | IC50 |
| --- | --- |
| CC(C)[C@H](N)C(=O)OCCOCn1cnc2c(=O)nc(N)[nH]c21 [VALACYCLOVIR] | Not Active |
| CN(N=O)C(=O)N[C@@H](C=O)[C@@H](O)[C@H](O)[C@H](O)CO [STREPTOZOCIN] | Not Active |

Molecular target: 5-hydroxytryptamine receptor 6 (Homo sapiens, UniProt P50406); note: in other assays of this panel Not Active means under 50% inhibition at 10 µM
Sequence (P50406 whole entry): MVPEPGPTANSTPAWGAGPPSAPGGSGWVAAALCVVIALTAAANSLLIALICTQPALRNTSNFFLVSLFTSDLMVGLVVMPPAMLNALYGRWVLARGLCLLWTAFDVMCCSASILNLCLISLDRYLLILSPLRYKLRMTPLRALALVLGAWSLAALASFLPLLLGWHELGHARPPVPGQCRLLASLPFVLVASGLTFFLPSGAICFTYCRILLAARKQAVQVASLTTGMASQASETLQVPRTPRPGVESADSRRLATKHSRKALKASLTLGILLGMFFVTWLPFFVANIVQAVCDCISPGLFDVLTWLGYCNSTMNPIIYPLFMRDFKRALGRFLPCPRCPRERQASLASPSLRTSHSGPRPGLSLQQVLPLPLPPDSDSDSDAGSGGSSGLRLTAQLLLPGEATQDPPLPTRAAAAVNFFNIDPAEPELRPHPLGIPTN
Assay type: cell membranes, HeLa, Membrane
Conditions: hela

| SMILES | IC50 |
| --- | --- |
| CC(C)[C@H](N)C(=O)OCCOCn1cnc2c(=O)nc(N)[nH]c21 [VALACYCLOVIR] | Not Active |
| CN(N=O)C(=O)N[C@@H](C=O)[C@@H](O)[C@H](O)[C@H](O)CO [STREPTOZOCIN] | Not Active |

Molecular target: T4, Neuropeptide Y receptor type 2 (Homo sapiens, UniProt P49146); note: in other assays of this panel Not Active means under 50% inhibition at 10 µM
T4 sequence (P49146 whole entry): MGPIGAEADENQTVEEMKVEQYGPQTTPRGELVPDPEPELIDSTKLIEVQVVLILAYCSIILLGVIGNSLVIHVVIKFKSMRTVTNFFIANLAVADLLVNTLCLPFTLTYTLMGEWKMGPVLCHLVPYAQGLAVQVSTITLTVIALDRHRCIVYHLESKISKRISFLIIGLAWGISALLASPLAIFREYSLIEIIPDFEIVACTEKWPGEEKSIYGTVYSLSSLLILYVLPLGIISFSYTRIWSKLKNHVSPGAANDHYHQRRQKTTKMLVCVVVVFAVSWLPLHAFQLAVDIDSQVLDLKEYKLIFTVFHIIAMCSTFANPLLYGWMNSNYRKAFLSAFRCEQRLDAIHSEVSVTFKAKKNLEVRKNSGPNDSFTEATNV
Assay type: cell membranes, Membrane
Conditions: kan-ts

| SMILES | IC50 |
| --- | --- |
| CC(C)[C@H](N)C(=O)OCCOCn1cnc2c(=O)nc(N)[nH]c21 [VALACYCLOVIR] | Not Active |
| CN(N=O)C(=O)N[C@@H](C=O)[C@@H](O)[C@H](O)[C@H](O)CO [STREPTOZOCIN] | Not Active |
